{
  "source": "patent US20030144249A1",
  "about": "“Use of organophosphorous compounds for producing a medicament for treating infections” (priority 2000, published 2003)",
  "key": {"[1]": {"target": "T1, DOXP reductoisomerase from Helicobacter pylori (Helicobacter pylori, UniProt P56139)", "T1 construct": "made in house; host or cells: Helicobacter pylori (so in the source)", "T1 sequence (P56139 1-368)": "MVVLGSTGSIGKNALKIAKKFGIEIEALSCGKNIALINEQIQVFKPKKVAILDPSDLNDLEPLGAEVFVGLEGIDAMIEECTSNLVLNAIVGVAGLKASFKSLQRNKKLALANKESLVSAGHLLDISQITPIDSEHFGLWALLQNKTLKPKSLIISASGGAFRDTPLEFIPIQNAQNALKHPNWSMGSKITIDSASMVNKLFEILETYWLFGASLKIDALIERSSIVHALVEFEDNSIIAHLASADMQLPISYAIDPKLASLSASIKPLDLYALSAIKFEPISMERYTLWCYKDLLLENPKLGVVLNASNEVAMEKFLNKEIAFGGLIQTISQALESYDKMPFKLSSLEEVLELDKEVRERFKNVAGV", "experiment": "DOXP reductoisomerase inhibition (NADPH oxidation at 365 nm)", "assay_type": "biochemical", "conditions": "recombinant enzyme; 0.3 mM NADPH, 1 mM DOXP, pH 7.5; read-out: IC50 (nM) of DOXP reductoisomerase from Helicobacter pylori", "procedure": "The DOXP reductoisomerase of Helicobacter pylori was expressed as a recombinant protein in Helicobacter pylori. The activity of DOXP reductoisomerase was determined in a batch containing 100 mM tris-HCl (pH=7.5), 1 mM MnCl2, 0.3 mM NADPH and 1 mM DOXP.\nThe oxidation of NADPH was here measured at 365 nm in a spectrophotometer. The inhibition studies were performed by measuring the activity of DOXP reductoisomerase in the presence of compounds 1 to 8 (see page 5) at various concentrations between 0. 1 and 100 μmol l^−1."}, "Plasmodium falciparum": {"test_system": "Plasmodium falciparum", "experiment": "Antimalarial activity, in vitro culture, [3H]-hypoxanthine incorporation", "assay_type": "cell-based", "conditions": "72 h, asynchronous culture, 48 h + 24 h with [3H]-hypoxanthine, read-out: IC50 (nM) of malaria culture (Plasmodium falciparum)", "procedure": "The antimalarial activity of substances 1 to 8 (see page 5) was determined using in vitro cultures of the causative organism of malaria, Plasmodium falciparum. 200 μl of an asynchronous Plasmodium falciparum culture with a 0.4% blood parasite content and a heamatocrit of 2% were loaded into each of the wells of a 96 well microtitre plate. A serial dilution series of the compounds was then prepared in steps of three between concentrations of 100 and 0.14 μmol l^−1. The plates were incubated at 37° C., 3% CO2 and 5% O2 over a period of 48 hours. 30 μl of medium supplemented with 27 μCi ml^−1 of [^3H]-hypoxanthine were then added to each well. After 24 hours' incubation, the parasites were harvested by filtration through glass fibre filters and the incorporated radioactivity was measured. Inhibition of parasite growth was measured as the percentage inhibition of tritium incorporation. Inhibition of parasite growth was expressed as the percentage inhibition of tritium incorporation relative to a comparison without the substance. The median inhibitory concentration (IC50) of the substance was determined by extrapolating the values."}, "Rice": {"test_system": "Rice", "experiment": "Herbicidal activity, water, pre-emergence", "assay_type": "in vivo", "conditions": "Oryza sativa, Water, 1000 gram/hectare", "procedure": "(§1) Herbicidal activity is determined using standard methods.\n(§2) Substances 1 to 8 listed on page 5 are again investigated."}, "Echinochloa": {"test_system": "Echinochloa", "experiment": "Herbicidal activity, water, pre-emergence", "assay_type": "in vivo", "conditions": "Water, 1000 gram/hectare", "procedure": "as §1, §2"}, "Lepidium": {"test_system": "Lepidium", "experiment": "Herbicidal activity, water, pre-emergence", "assay_type": "in vivo", "conditions": "Water, 1000 gram/hectare", "procedure": "as §1, §2"}, "Solanum": {"test_system": "Solanum", "experiment": "Herbicidal activity, water, pre-emergence", "assay_type": "in vivo", "conditions": "Water, 1000 gram/hectare", "procedure": "as §1, §2"}, "Cyperus esculentus [2]": {"test_system": "Cyperus esculentus", "experiment": "Herbicidal activity, soil, post-emergence", "assay_type": "in vivo", "conditions": "Soil, post-emergence, 500 gram/hectare", "procedure": "as §1, §2"}, "Zea mays [3]": {"test_system": "Zea mays", "experiment": "Herbicidal activity, soil, post-emergence", "assay_type": "in vivo", "conditions": "Soil, post-emergence, 500 gram/hectare", "procedure": "as §1, §2"}, "Sinapis arvensis [4]": {"test_system": "Sinapis arvensis", "experiment": "Herbicidal activity, soil, post-emergence", "assay_type": "in vivo", "conditions": "Mutarda arvensis; Soil, post-emergence; 500 gram/hectare", "procedure": "as §1, §2"}, "Beta vulgaris [5]": {"test_system": "Beta vulgaris", "experiment": "Herbicidal activity, soil, post-emergence", "assay_type": "in vivo", "conditions": "Soil, post-emergence, 500 gram/hectare", "procedure": "as §1, §2"}, "Xanthium strumarium [6]": {"test_system": "Xanthium strumarium", "experiment": "Herbicidal activity, soil, post-emergence", "assay_type": "in vivo", "conditions": "Soil, post-emergence, 500 gram/hectare", "procedure": "as §1, §2"}, "Alopecurus myosuroides [7]": {"test_system": "Alopecurus myosuroides", "experiment": "Herbicidal activity, soil, post-emergence", "assay_type": "in vivo", "conditions": "Soil, post-emergence, 500 gram/hectare", "procedure": "as §1, §2"}, "Galium aperine [8]": {"test_system": "Galium aperine", "experiment": "Herbicidal activity, soil, post-emergence", "assay_type": "in vivo", "conditions": "Soil, post-emergence, 500 gram/hectare", "procedure": "as §1, §2"}, "Avena fatua [9]": {"test_system": "Avena fatua", "experiment": "Herbicidal activity, soil, post-emergence", "assay_type": "in vivo", "conditions": "Soil, post-emergence, 500 gram/hectare", "procedure": "as §1, §2"}, "Amaranthus retroflexus [10]": {"test_system": "Amaranthus retroflexus", "experiment": "Herbicidal activity, soil, post-emergence", "assay_type": "in vivo", "conditions": "Soil, post-emergence, 500 gram/hectare", "procedure": "as §1, §2"}, "Abutilon theophrasti [11]": {"test_system": "Abutilon theophrasti", "experiment": "Herbicidal activity, soil, post-emergence", "assay_type": "in vivo", "conditions": "Soil, post-emergence, 500 gram/hectare", "procedure": "as §1, §2"}, "Setaria viridis [12]": {"test_system": "Setaria viridis", "experiment": "Herbicidal activity, soil, post-emergence", "assay_type": "in vivo", "conditions": "Soil, post-emergence, 500 gram/hectare", "procedure": "as §1, §2"}, "Cyperus esculentus [13]": {"test_system": "Cyperus esculentus", "experiment": "Herbicidal activity, soil, pre-emergence", "assay_type": "in vivo", "conditions": "Soil, pre-emergence, 500 gram/hectare", "procedure": "as §1, §2"}, "Zea mays [14]": {"test_system": "Zea mays", "experiment": "Herbicidal activity, soil, pre-emergence", "assay_type": "in vivo", "conditions": "Soil, pre-emergence, 500 gram/hectare", "procedure": "as §1, §2"}, "Sinapis arvensis [15]": {"test_system": "Sinapis arvensis", "experiment": "Herbicidal activity, soil, pre-emergence", "assay_type": "in vivo", "conditions": "Mutarda arvensis; Soil, pre-emergence; 500 gram/hectare", "procedure": "as §1, §2"}, "Beta vulgaris [16]": {"test_system": "Beta vulgaris", "experiment": "Herbicidal activity, soil, pre-emergence", "assay_type": "in vivo", "conditions": "Soil, pre-emergence, 500 gram/hectare", "procedure": "as §1, §2"}, "Xanthium strumarium [17]": {"test_system": "Xanthium strumarium", "experiment": "Herbicidal activity, soil, pre-emergence", "assay_type": "in vivo", "conditions": "Soil, pre-emergence, 500 gram/hectare", "procedure": "as §1, §2"}, "Alopecurus myosuroides [18]": {"test_system": "Alopecurus myosuroides", "experiment": "Herbicidal activity, soil, pre-emergence", "assay_type": "in vivo", "conditions": "Soil, pre-emergence, 500 gram/hectare", "procedure": "as §1, §2"}, "Galium aperine [19]": {"test_system": "Galium aperine", "experiment": "Herbicidal activity, soil, pre-emergence", "assay_type": "in vivo", "conditions": "Soil, pre-emergence, 500 gram/hectare", "procedure": "as §1, §2"}, "Avena fatua [20]": {"test_system": "Avena fatua", "experiment": "Herbicidal activity, soil, pre-emergence", "assay_type": "in vivo", "conditions": "Soil, pre-emergence, 500 gram/hectare", "procedure": "as §1, §2"}, "Amaranthus retroflexus [21]": {"test_system": "Amaranthus retroflexus", "experiment": "Herbicidal activity, soil, pre-emergence", "assay_type": "in vivo", "conditions": "Soil, pre-emergence, 500 gram/hectare", "procedure": "as §1, §2"}, "Abutilon theophrasti [22]": {"test_system": "Abutilon theophrasti", "experiment": "Herbicidal activity, soil, pre-emergence", "assay_type": "in vivo", "conditions": "Soil, pre-emergence, 500 gram/hectare", "procedure": "as §1, §2"}, "Setaria viridis [23]": {"test_system": "Setaria viridis", "experiment": "Herbicidal activity, soil, pre-emergence", "assay_type": "in vivo", "conditions": "Soil, pre-emergence, 500 gram/hectare", "procedure": "as §1, §2"}},
  "data": [
    {"smiles": "CCCC(=O)N(O)C(C)N(C)CC(O)P(C)(C)=O", "note": "(stereo not shown) [Compound 1]", "values": [
      {"measurement": "IC50", "setting": "[1]", "result": 80, "unit": "nM"},
      {"measurement": "IC50", "setting": "Plasmodium falciparum", "result": 580, "unit": "nM"},
      {"measurement": "plant injury at 1000 g/ha", "setting": "Rice", "result": 40, "unit": "%"},
      {"measurement": "pest or weed control at 1000 g/ha", "setting": "Echinochloa", "result": 70, "unit": "%"},
      {"measurement": "pest or weed control at 1000 g/ha", "setting": "Lepidium", "result": 50, "unit": "%"},
      {"measurement": "pest or weed control at 1000 g/ha", "setting": "Solanum", "result": 0, "unit": "%"},
      {"measurement": "pest or weed control at 500 g/ha", "setting": "Cyperus esculentus [2]", "result": 0, "unit": "%"},
      {"measurement": "plant injury at 500 g/ha", "setting": "Zea mays [3]", "result": 80, "unit": "%"},
      {"measurement": "pest or weed control at 500 g/ha", "setting": "Sinapis arvensis [4]", "result": 95, "unit": "%"},
      {"measurement": "plant injury at 500 g/ha", "setting": "Beta vulgaris [5]", "result": 50, "unit": "%"},
      {"measurement": "pest or weed control at 500 g/ha", "setting": "Xanthium strumarium [6]", "result": 60, "unit": "%"},
      {"measurement": "pest or weed control at 500 g/ha", "setting": "Alopecurus myosuroides [7]", "result": 60, "unit": "%"},
      {"measurement": "pest or weed control at 500 g/ha", "setting": "Galium aperine [8]", "result": 60, "unit": "%"},
      {"measurement": "pest or weed control at 500 g/ha", "setting": "Avena fatua [9]", "result": 50, "unit": "%"},
      {"measurement": "pest or weed control at 500 g/ha", "setting": "Amaranthus retroflexus [10]", "result": 0, "unit": "%"},
      {"measurement": "pest or weed control at 500 g/ha", "setting": "Abutilon theophrasti [11]", "result": 40, "unit": "%"},
      {"measurement": "pest or weed control at 500 g/ha", "setting": "Setaria viridis [12]", "result": 95, "unit": "%"},
      {"measurement": "pest or weed control at 500 g/ha", "setting": "Cyperus esculentus [13]", "result": 0, "unit": "%"},
      {"measurement": "plant injury at 500 g/ha", "setting": "Zea mays [14]", "result": 0, "unit": "%"},
      {"measurement": "pest or weed control at 500 g/ha", "setting": "Sinapis arvensis [15]", "result": 40, "unit": "%"},
      {"measurement": "plant injury at 500 g/ha", "setting": "Beta vulgaris [16]", "result": 30, "unit": "%"},
      {"measurement": "pest or weed control at 500 g/ha", "setting": "Xanthium strumarium [17]", "result": 0, "unit": "%"},
      {"measurement": "pest or weed control at 500 g/ha", "setting": "Alopecurus myosuroides [18]", "result": 40, "unit": "%"},
      {"measurement": "pest or weed control at 500 g/ha", "setting": "Galium aperine [19]", "result": 0, "unit": "%"},
      {"measurement": "pest or weed control at 500 g/ha", "setting": "Avena fatua [20]", "result": 0, "unit": "%"},
      {"measurement": "pest or weed control at 500 g/ha", "setting": "Amaranthus retroflexus [21]", "result": 0, "unit": "%"},
      {"measurement": "pest or weed control at 500 g/ha", "setting": "Abutilon theophrasti [22]", "result": 0, "unit": "%"},
      {"measurement": "pest or weed control at 500 g/ha", "setting": "Setaria viridis [23]", "result": 0, "unit": "%"}
    ]}
  ]
}
